Broadly, the pKi is −log10 of the Ki, conventionally taken in molar units. High values mean a small Ki, low ones a large Ki.

Test [1] relates to formalin-induced flinching in rats. Kind of test: In vivo formalin-induced nociception assay. Also on record: species or system rat. Particulars: dose of 300 μg, i.paw. An excerpt: Administration of formalin into the paw results in a localized inflammation and a pain response that is moderate in intensity and continuous in duration. Unlike many other assays of nociception, the formalin assay measures tonic pain that is a result of tissue injury, and therefore is a model which is more relevant to clinical pain states in humans (see Tjolsen et al., Pain 51: 5–17, 1992). In the rat the response to formalin-induced pain consists of spontaneous flinching behavior, characterized by paw lifting and paw shaking, and a rapid vibration of the paw after drawing it under the body. […] The early or acute phase lasts from 0–5 minutes post-formalin and is followed by a quiescent period lasting approximately 15 minutes. The tonic phase occurs from 20–35 minutes following formalin injection and is the interval where the number of flinching responses is maximal. […]
Inflammation is induced by subcutaneous injection of […] of a 5% formalin solution into the dorsal surface of the right hind paw of male Sprague-Dawley rats weighing 70–90 g. Injections of drug are given into the dorsal surface of the paw prior to formalin injection, and flinching behavior is quantitated by counting the number of responses that occur during the tonic phase of pain, lasting from 20–35 min after formalin injection. […]

For test [2], the target named is T1, cloned human δ opioid receptor (Homo sapiens, UniProt P41143).
T1 construct: expressed in transfected cells
T1 sequence (P41143 whole entry): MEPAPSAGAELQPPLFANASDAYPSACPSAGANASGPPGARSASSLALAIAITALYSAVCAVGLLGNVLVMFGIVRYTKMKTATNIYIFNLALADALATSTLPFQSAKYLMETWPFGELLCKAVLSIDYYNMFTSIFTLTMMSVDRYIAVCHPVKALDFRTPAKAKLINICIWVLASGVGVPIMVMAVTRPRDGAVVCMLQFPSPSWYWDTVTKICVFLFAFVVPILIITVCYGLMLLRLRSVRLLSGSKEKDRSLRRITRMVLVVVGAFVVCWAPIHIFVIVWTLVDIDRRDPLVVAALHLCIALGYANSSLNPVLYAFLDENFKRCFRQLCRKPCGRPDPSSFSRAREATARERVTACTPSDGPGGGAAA
Kind of test: In vitro binding assay, inhibition of [3H]diprenorphine binding to cloned human δ opioid receptor. The method, then: IC50 values were obtained by nonlinear analysis of the data using GraphPad Prism version 3.00 for Windows (GraphPad Software, San Diego). Ki values were obtained by Cheng-Prusoff corrections of IC50 values.
After incubation at room temperature for one hour, the samples were filtered through GF/B filters that had been presoaked in a solution of 0.5% (w/v) polyethylenimine and 0.1% (w/v) bovine serum albumin in water. The filters were rinsed 4 times with 1 mL of cold 50 mM Tris HCl, pH 7.8 and radioactivity remaining on the filters determined by scintillation spectroscopy. Nonspecific binding was determined by the minimum values of the titration curves and was confirmed by separate assay wells containing 10 μM naloxone.
To determine the equilibrium dissociation constant for the inhibitors (Ki), radioligand bound (cpm) in the presence of various concentrations of test compounds was measured. The concentration to give half-maximal inhibition (EC50) of radioligand binding was determined from a best nonlinear regression fit to the following equation,
The nonlinear regression fit was performed using the program Prism® (GraphPad Software, San Diego, Calif.). The Ki values were then determined from the EC50 values by the following equation, […]

pKi: −log10 of the molar value.

Take `COC(=O)NCc1ccc2c(c1)CC[C@H](C(=O)N(C)[C@H](CN1CC[C@H](O)C1)c1ccccc1)O2` [Example 52, (2-{[2-({S}-3-Hydroxy-pyrrolidin-1-yl)-{S}-1-phenyl-ethyl]-(R)-methyl-carbamoyl}-chroman-6-ylmethyl)-carbamic acidmethyl ester]: the “% A (percent antagonism of formalin-induced flinching)” value in test [1] stood at 95%. Besides, the pKi in test [2] was 5.80.

The values above are taken from patent US7034051B2, “Fused bicyclic carboxamide derivatives and methods of their use” (Adolor Corporation, priority 2003, dated 2006).
